14 molecules from patent US10213429B2, “Imidazo-pyrazinyl derivatives useful as soluble guanylate cyclase activators” (Merck Sharp & Dohme Corp., priority 2015, dated 2019) can be followed below.

In one test the target is T1, sGC α1/β1 heterodimer (Homo sapiens, UniProt Q02108+Q02153).
T1 construct: expressed in transfected cells; host or cells: CHO-K1 (clone #7, CHO-K1/sGC)
T1 sequence (Q02108 1-690): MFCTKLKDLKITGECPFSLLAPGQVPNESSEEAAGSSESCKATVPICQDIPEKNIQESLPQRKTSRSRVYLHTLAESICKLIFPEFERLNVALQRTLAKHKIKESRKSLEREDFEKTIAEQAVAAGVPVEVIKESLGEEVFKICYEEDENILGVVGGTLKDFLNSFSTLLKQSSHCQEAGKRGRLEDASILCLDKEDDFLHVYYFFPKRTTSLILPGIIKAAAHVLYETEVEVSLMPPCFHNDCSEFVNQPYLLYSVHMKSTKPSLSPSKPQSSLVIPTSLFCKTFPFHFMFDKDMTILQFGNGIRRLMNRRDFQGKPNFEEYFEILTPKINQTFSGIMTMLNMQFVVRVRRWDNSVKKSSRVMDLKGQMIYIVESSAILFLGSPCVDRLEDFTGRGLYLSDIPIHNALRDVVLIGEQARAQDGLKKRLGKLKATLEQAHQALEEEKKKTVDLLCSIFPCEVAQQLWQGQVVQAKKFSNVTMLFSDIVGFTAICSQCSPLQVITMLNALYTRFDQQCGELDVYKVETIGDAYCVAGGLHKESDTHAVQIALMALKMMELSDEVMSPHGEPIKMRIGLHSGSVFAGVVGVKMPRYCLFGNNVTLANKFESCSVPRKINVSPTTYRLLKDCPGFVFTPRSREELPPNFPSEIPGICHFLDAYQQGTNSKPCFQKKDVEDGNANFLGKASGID
T1 sequence (Q02153 1-619): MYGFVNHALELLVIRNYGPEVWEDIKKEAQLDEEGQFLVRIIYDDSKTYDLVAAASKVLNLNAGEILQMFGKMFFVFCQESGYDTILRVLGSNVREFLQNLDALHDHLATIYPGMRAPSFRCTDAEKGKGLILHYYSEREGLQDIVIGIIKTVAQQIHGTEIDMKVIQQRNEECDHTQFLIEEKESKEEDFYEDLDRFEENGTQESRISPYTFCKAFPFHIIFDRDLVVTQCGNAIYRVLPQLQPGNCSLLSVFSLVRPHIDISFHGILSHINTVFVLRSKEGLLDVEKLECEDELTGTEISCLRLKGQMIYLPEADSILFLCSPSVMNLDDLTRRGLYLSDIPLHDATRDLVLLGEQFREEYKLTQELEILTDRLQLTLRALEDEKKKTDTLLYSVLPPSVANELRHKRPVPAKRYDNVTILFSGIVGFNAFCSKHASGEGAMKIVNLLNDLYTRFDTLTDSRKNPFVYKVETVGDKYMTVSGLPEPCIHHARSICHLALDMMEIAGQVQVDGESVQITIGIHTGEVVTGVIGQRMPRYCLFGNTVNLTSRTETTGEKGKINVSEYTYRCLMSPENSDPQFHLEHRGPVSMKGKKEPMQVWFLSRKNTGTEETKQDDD
In words: Cell-Based sGC Functional Assay (CASA Assay), cGMP by HTRF in CHO-K1/sGC cells. Particulars: for Emax: CHO-K1, percent activation relative to maximum cGMP production of Compound A (= 100%), read-out: % Act.; for EC50: cGMP production, 1 hr at 37° C., 4P fit, presence or absence of 1 μM DETA-NO not given, read-out: IP (nM) (inflection point). The essentials: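 CHO-K1 cells stably expressing human sGC α1/β1, in EBSS buffer with 5 mM MgCl2, 10 mM HEPES, 0.05% BSA and 0.5 mM IBMX, incubated with compound (2.5% DMSO) ± 1 μM DETA-NO, 1 h, 37 °C. Intracellular cGMP read by HTRF; activity as % of reference activator maximum, IP from 4-parameter fit.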
(In general: In TR-FRET formats the signal depends on donor and acceptor labels being close together.)

The subject of test [1] is Spontaneously hypertensive rats (SHR). The test is described as follows: Acute Efficacy in Spontaneously Hypertensive Rats (SHR), telemetry blood pressure. It is filed as in vivo, rat. Particulars: SHR male. From the text:
Acute Efficacy in Spontaneously Hypertensive Rats (SHR)
Spontaneously hypertensive rats (SHR, male, Charles River) were implanted with DSI TA11PA-C40 telemetry device (Data Sciences, Inc., St. Paul, Minn.) under isoflurane or ketamine/metomidine anesthesia. The telemetry unit catheter was inserted into the descending aorta via the femoral artery and the telemetry device was implanted subcutaneously in the left flank area. Animals were allowed to recover from surgery for 14 days before the start of any studies. Blood pressure, heart rate, and activity signals from conscious, freely moving rats were recorded continuously for 30 seconds every 10 minutes. On the day prior to administration of compound, a single oral dose of vehicle (10% transcutol/20% Cremophor/70% water) was administered to all animals to establish baseline control data. The blood pressure lowering efficacy of compound (PO) or vehicle was evaluated following a single oral gavage. Data were collected as hourly averages, and changes in blood pressure were calculated by subtracting control baseline data on an hourly basis. Animals were maintained on normal diet with a 12 hour light-dark cycle.
Maximum peak decreases of systolic blood pressure (SBP) in SHR at a particular P.O. dose (mpk milligrams per kilogram) for the following representative compounds are provided. • Category A=SBP in SHRs<20 mmHg; Category B=SBP in SHRs 20-40 mmHg; • Category C=SBP in SHRs>40 mmHg

For the molecule `CC1(c2ccc(Cl)cc2)C(=O)Nc2nc(-c3cn4ccnc4c(CCC(F)(F)C(F)(F)F)n3)nc(O)c21` (stereo not drawn) [Example 4A, 5-(4-chlorophenyl)-4-hydroxy-5-methyl-2-(8-(3,3,4,4,4-pentafluorobutyl)imidazo[1,2-a]pyrazin-6-yl)-5H-pyrrolo[2,3-d]pyrimidin-6(7H)-one], at sGC α1/β1 heterodimer, the Emax came to 83% and the EC50 was 125 nM. Also, the “Cat. (maximum peak decrease of systolic blood pressure (SBP) in SHR)” value in test [1] (single oral dose 3.0 mpk P.O.) is “B (Category B=SBP in SHRs 20-40 mmHg)”.

In the case of `CC1(c2ccc(F)cc2)C(=O)Nc2nc(-c3cn4ccnc4c(CCC(F)(F)C(F)(F)F)n3)ncc21` (stereo not drawn) [Example 1A, 5-(4-Fluorophenyl)-5-methyl-2-(8-(3,3,4,4,4-pentafluorobutyl)imidazo[1,2-a]pyrazin-6-yl)-5H-pyrrolo[2,3-d]pyrimidin-6(7H)-one], at sGC α1/β1 heterodimer, the Emax was determined as 121% and the EC50 is 228 nM. In addition, in test [1] (single oral dose 1.0 mpk P.O.), the “Cat. (maximum peak decrease of systolic blood pressure (SBP) in SHR)” value is “B (Category B=SBP in SHRs 20-40 mmHg)”.

With `CC1(c2ccc(F)cc2)C(=O)Nc2nc(-c3cn4ccnc4c(CCCC(F)(F)F)n3)ncc21` (stereo not drawn) [Example 64A, 5-(4-fluorophenyl)-5-methyl-2-(8-(4,4,4-trifluorobutyl)imidazo[1,2-a]pyrazin-6-yl)-5H-pyrrolo[2,3-d]pyrimidin-6(7H)-one], on sGC α1/β1 heterodimer, the Emax came out at 141% and the EC50 came out at 35 nM. In addition, in test [1] (single oral dose 0.3 mpk P.O.), the “Cat. (maximum peak decrease of systolic blood pressure (SBP) in SHR)” value is reported as “B (Category B=SBP in SHRs 20-40 mmHg)”.

For `CC1(c2ccc(F)cc2)C(=O)Nc2nc(-c3cn4ccnc4c(OCCC4CC4)n3)nc(O)c21` (stereo not drawn) [Example 93A, 2-(8-(2-Cyclopropylethoxy)imidazo[1,2-a]pyrazin-6-yl)-5-(4-fluorophenyl)-4-hydroxy-5-methyl-5H-pyrrolo[2,3-d]pyrimidin-6(7H)-one], at sGC α1/β1 heterodimer, the Emax was found to be 86% and the EC50 came to 163 nM. Further, the “Cat. (maximum peak decrease of systolic blood pressure (SBP) in SHR)” value in test [1] (single oral dose 1.0 mpk P.O.) is “A (Category A=SBP in SHRs<20 mmHg)”.

With `CCCc1nc(-c2ncc3c(n2)NC(=O)C3(C)c2ccc(Cl)c(F)c2)cn2ccnc12` (stereo not drawn) [Example 38B, 5-(4-chloro-3-fluorophenyl)-5-methyl-2-(8-propylimidazo[1,2-a]pyrazin-6-yl)-5H-pyrrolo[2,3-d]pyrimidin-6(7H)-one], at sGC α1/β1 heterodimer, the Emax is 135% and the EC50 came to 173 nM. Also, the “Cat. (maximum peak decrease of systolic blood pressure (SBP) in SHR)” value in test [1] (single oral dose 1.0 mpk P.O.) is reported as “A (Category A=SBP in SHRs<20 mmHg)”.

With `CCCCc1nc(-c2nc(O)c3c(n2)NC(=O)C3(c2ccc(Cl)cc2)C2CC2)cn2ccnc12` (stereo not drawn) [Example 23B, 2-(8-butylimidazo[1,2-a]pyrazin-6-yl)-5-(4-chlorophenyl)-5-cyclopropyl-4-hydroxy-5H-pyrrolo[2,3-d]pyrimidin-6(7H)-one], on sGC α1/β1 heterodimer, the Emax was 146% and the EC50 is 204 nM. Further, the “Cat. (maximum peak decrease of systolic blood pressure (SBP) in SHR)” value in test [1] (single oral dose 1.0 mpk P.O.) was “A (Category A=SBP in SHRs<20 mmHg)”.

Consider `O=C1Nc2nc(-c3cn4ccnc4c(CCCC(F)(F)F)n3)nc(O)c2C1(c1ccc(F)cc1)C1CC1` (stereo not drawn) [Example 35B, 5-cyclopropyl-5-(4-fluorophenyl)-4-hydroxy-2-(8-(4,4,4-trifluorobutyl)imidazo[1,2-a]pyrazin-6-yl)-5H-pyrrolo[2,3-d]pyrimidin-6(7H)-one], for which, at sGC α1/β1 heterodimer, the Emax turned out to be 148% and the EC50 came out at 190 nM. In test [1] (single oral dose 3.0 mpk P.O.), the “Cat. (maximum peak decrease of systolic blood pressure (SBP) in SHR)” value was “A (Category A=SBP in SHRs<20 mmHg)”.

On to `CC1(c2ccc(Cl)cn2)C(=O)Nc2nc(-c3cn4ccnc4c(Cc4ccc(F)cc4)n3)ncc21` (stereo not drawn) [Example 42A, 5-(5-chloropyridin-2-yl)-2-(8-(4-fluorobenzyl)imidazo[1,2-a]pyrazin-6-yl)-5-methyl-5H-pyrrolo[2,3-d]pyrimidin-6(7H)-one], for which, at sGC α1/β1 heterodimer, the Emax was 124% and the EC50 was 4 nM. The “Cat. (maximum peak decrease of systolic blood pressure (SBP) in SHR)” value in test [1] (single oral dose 0.3 mpk P.O.) is on record as “B (Category B=SBP in SHRs 20-40 mmHg)”.

Turning to `O=C1Nc2nc(-c3cn4ccnc4c(CCCC(F)(F)F)n3)ncc2C1(c1ccc(F)cn1)C1CC1` (stereo not drawn) [Example 54A, 5-cyclopropyl-5-(5-fluoropyridin-2-yl)-2-(8-(4,4,4-trifluorobutyl)imidazo[1,2-a]pyrazin-6-yl)-5H-pyrrolo[2,3-d]pyrimidin-6(7H)-one], on sGC α1/β1 heterodimer, the Emax is 137% and the EC50 was 21 nM. In addition, in test [1] (single oral dose 1.0 mpk P.O.), the “Cat. (maximum peak decrease of systolic blood pressure (SBP) in SHR)” value is listed as “A (Category A=SBP in SHRs<20 mmHg)”.

For the molecule `CCCCc1nc(-c2ncc3c(n2)NC(=O)C3(c2ccc(Cl)cc2)C2CC2)cn2ccnc12` (stereo not drawn) [Example 49B, 2-(8-butylimidazo[1,2-a]pyrazin-6-yl)-5-(4-chlorophenyl)-5-cyclopropyl-5H-pyrrolo[2,3-d]pyrimidin-6(7H)-one], on sGC α1/β1 heterodimer, the Emax was determined as 157% and the EC50 came to 24 nM. In addition, the “Cat. (maximum peak decrease of systolic blood pressure (SBP) in SHR)” value in test [1] (single oral dose 1.0 mpk P.O.) was “B (Category B=SBP in SHRs 20-40 mmHg)”.

With `CCCCc1nc(-c2ncc3c(n2)NC(=O)C3(C)c2ccc(F)cc2)cn2ccnc12` (stereo not drawn) [Example 78A, 2-(8-Butylimidazo[1,2-a]pyrazin-6-yl)-5-(4-fluorophenyl)-5-methyl-5H-pyrrolo[2,3-d]pyrimidin-6(7H)-one], on sGC α1/β1 heterodimer, the Emax amounted to 121% and the EC50 was found to be 50 nM. Besides, in test [1] (single oral dose 1.0 mpk P.O.), the “Cat. (maximum peak decrease of systolic blood pressure (SBP) in SHR)” value is recorded as “C (Category C=SBP in SHRs>40 mmHg)”.

For the molecule `CC1(c2ccc(F)cn2)C(=O)Nc2nc(-c3cn4ccnc4c(CC4CCC4)n3)ncc21` (stereo not drawn) [Example 65B, 2-(8-(cyclobutylmethyl)imidazo[1,2-a]pyrazin-6-yl)-5-(5-fluoropyridin-2-yl)-5-methyl-5H-pyrrolo[2,3-d]pyrimidin-6(7H)-one], on sGC α1/β1 heterodimer, the Emax came out at 102% and the EC50 was found to be 71 nM. In test [1] (single oral dose 0.3 mpk P.O.), the “Cat. (maximum peak decrease of systolic blood pressure (SBP) in SHR)” value is “B (Category B=SBP in SHRs 20-40 mmHg)”.

As to `CC1(c2ccc(Cl)cn2)C(=O)Nc2nc(-c3cn4ccnc4c(CC4CCC4)n3)nc(O)c21` (stereo not drawn) [Example 27A, 5-(5-chloropyridin-2-yl)-2-(8-(cyclobutylmethyl)imidazo [1,2-a]pyrazin-6-yl)-4-hydroxy-5-methyl-5H-pyrrolo[2,3-d]pyrimidin-6(7H)-one], on sGC α1/β1 heterodimer, the Emax is 95% and the EC50 was determined as 645 nM. Also, the “Cat. (maximum peak decrease of systolic blood pressure (SBP) in SHR)” value in test [1] (single oral dose 3.0 mpk P.O.) was “B (Category B=SBP in SHRs 20-40 mmHg)”.

For `CC(C)Cc1nc(-c2ncc3c(n2)NC(=O)C3(C)c2ccc(Cl)cn2)cn2ccnc12` (stereo not drawn) [Example 41A, 5-(5-chloropyridin-2-yl)-2-(8-isobutylimidazo[1,2-a]pyrazin-6-yl)-5-methyl-5H-pyrrolo[2,3-d]pyrimidin-6(7H)-one], at sGC α1/β1 heterodimer, the Emax stood at 111% and the EC50 is 235 nM. Further, in test [1] (single oral dose 3.0 mpk P.O.), the “Cat. (maximum peak decrease of systolic blood pressure (SBP) in SHR)” value was “A (Category A=SBP in SHRs<20 mmHg)”.
